In ChEMBL document CHEMBL1131036, “Structure-based design, synthesis, and biological evaluation of irreversible human rhinovirus 3C protease inhibitors. 1. Michael acceptor structure-activity studies” (J Med Chem, 1998):

Key:
HeLa [1] = assay: Formazan production in HRV-14 virus infected cells; format: functional, cell-based; conditions: Homo sapiens
HeLa [2] = assay: Concentration of compound that decreased the percentage of formazan production in treated HRV-14 virus infected cells to that produced in uninfected cells; format: functional; conditions: Homo sapiens
[3] = molecular target: T1, Human rhinovirus A protease (Human rhinovirus sp.) (UniProt Q4U254); assay: Catalytic rate constant (Kobs/[I]) evaluated against human rhinovirus (HRV) serotype 14 3C Protease (3CP); conditions: Human rhinovirus B (HRV-14)
T1 sequence (whole entry): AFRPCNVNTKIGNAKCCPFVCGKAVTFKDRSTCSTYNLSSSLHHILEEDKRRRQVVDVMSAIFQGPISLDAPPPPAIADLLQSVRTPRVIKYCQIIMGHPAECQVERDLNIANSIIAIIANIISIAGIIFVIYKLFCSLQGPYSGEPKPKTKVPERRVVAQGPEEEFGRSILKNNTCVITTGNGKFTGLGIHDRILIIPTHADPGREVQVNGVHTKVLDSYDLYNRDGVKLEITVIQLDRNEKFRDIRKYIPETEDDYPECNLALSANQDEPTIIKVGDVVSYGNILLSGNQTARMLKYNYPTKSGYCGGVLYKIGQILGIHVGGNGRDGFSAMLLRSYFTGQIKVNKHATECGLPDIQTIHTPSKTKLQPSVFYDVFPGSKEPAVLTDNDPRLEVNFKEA

CC(C)C[C@H](NC(=O)OCc1ccccc1)C(=O)N[C@@H](Cc1ccccc1)C(=O)N[C@H](/C=C/C(=O)OCC(C)(C)C)CCC(N)=O
EC50 (HeLa [1]): 0.5 µM | CC50 (HeLa [2]): > 100 µM | K obs / 1 [3]: 9800 M⁻¹ s⁻¹

CC(C)C[C@H](NC(=O)OCc1ccccc1)C(=O)N[C@@H](Cc1ccccc1)C(=O)N[C@H](/C=C/C(=O)N1CCc2cc(Cl)ccc21)CCC(N)=O
EC50 (HeLa [1]): 5.6 µM | CC50 (HeLa [2]): 56 µM | K obs / 1 [3]: 450 M⁻¹ s⁻¹

CCNC(=O)/C=C/[C@H](CCC(N)=O)NC(=O)[C@H](Cc1ccccc1)NC(=O)[C@H](CC(C)C)NC(=O)OCc1ccccc1
EC50 (HeLa [1]): > 320 µM | CC50 (HeLa [2]): > 320 µM | K obs / 1 [3]: 350 M⁻¹ s⁻¹

CC(C)C[C@H](NC(=O)OCc1ccccc1)C(=O)N[C@@H](Cc1ccccc1)C(=O)N[C@H](/C=C/C#N)CCC(N)=O
EC50 (HeLa [1]): 18 µM | CC50 (HeLa [2]): > 320 µM | K obs / 1 [3]: 0 M⁻¹ s⁻¹

CCOC(=O)/C(F)=C/[C@H](CCC(N)=O)NC(=O)[C@H](Cc1ccccc1)NC(=O)[C@H](CC(C)C)NC(=O)OCc1ccccc1
EC50 (HeLa [1]): > 320 µM | CC50 (HeLa [2]): > 320 µM | K obs / 1 [3]: 60 M⁻¹ s⁻¹

CC(C)C[C@H](NC(=O)OCc1ccccc1)C(=O)N[C@@H](Cc1ccccc1)C(=O)N[C@H](/C=C/c1ccccn1)CCC(N)=O
EC50 (HeLa [1]): > 100 µM | CC50 (HeLa [2]): > 100 µM | K obs / 1 [3]: 120 M⁻¹ s⁻¹

CO/N=C/C=C/[C@H](CCC(N)=O)NC(=O)[C@H](Cc1ccccc1)NC(=O)[C@H](CC(C)C)NC(=O)OCc1ccccc1
EC50 (HeLa [1]): 100 µM | CC50 (HeLa [2]): > 320 µM | K obs / 1 [3]: 0 M⁻¹ s⁻¹

CC(C)C[C@H](NC(=O)OCc1ccccc1)C(=O)N[C@@H](Cc1ccccc1)C(=O)N[C@H](/C=C/C(=O)c1ccccc1)CCC(N)=O
EC50 (HeLa [1]): 4 µM | CC50 (HeLa [2]): 16 µM | K obs / 1 [3]: 500000 M⁻¹ s⁻¹

CC(C)C[C@H](NC(=O)OCc1ccccc1)C(=O)N[C@@H](Cc1ccccc1)C(=O)N[C@H](/C=C/C(=O)N1CCCc2ccccc21)CCC(N)=O
EC50 (HeLa [1]): 126 µM | CC50 (HeLa [2]): > 320 µM | K obs / 1 [3]: 1000 M⁻¹ s⁻¹

CC(C)C[C@H](NC(=O)OCc1ccccc1)C(=O)N[C@@H](Cc1ccccc1)C(=O)N[C@H](/C=C/C(=O)N(C)O)CCC(N)=O
EC50 (HeLa [1]): 42 µM | CC50 (HeLa [2]): 42 µM | K obs / 1 [3]: 1800 M⁻¹ s⁻¹

CC(C)C[C@H](NC(=O)OCc1ccccc1)C(=O)N[C@@H](Cc1ccccc1)C(=O)N[C@H](/C=C/C(=O)N1CCCO1)CCC(N)=O
EC50 (HeLa [1]): 45 µM | CC50 (HeLa [2]): > 320 µM | K obs / 1 [3]: 14000 M⁻¹ s⁻¹

CC(C)C[C@H](NC(=O)OCc1ccccc1)C(=O)N[C@@H](Cc1ccccc1)C(=O)N[C@H](/C=C1\CCCOC1=O)CCC(N)=O
EC50 (HeLa [1]): 16 µM | CC50 (HeLa [2]): > 100 µM

CC(C)C[C@H](NC(=O)OCc1ccccc1)C(=O)N[C@@H](Cc1ccccc1)C(=O)N[C@H](/C=C/C(=O)N1CCc2cccc(S(C)(=O)=O)c21)CCC(N)=O
EC50 (HeLa [1]): > 320 µM | CC50 (HeLa [2]): > 320 µM | K obs / 1 [3]: < 1000 M⁻¹ s⁻¹

CC(C)C[C@H](NC(=O)OCc1ccccc1)C(=O)N[C@@H](Cc1ccccc1)C(=O)N[C@H](/C=C/C(=O)N(C)C)CCC(N)=O
EC50 (HeLa [1]): 56 µM | CC50 (HeLa [2]): > 100 µM | K obs / 1 [3]: 1300 M⁻¹ s⁻¹

CCOP(=O)(/C=C/[C@H](CCC(N)=O)NC(=O)[C@H](Cc1ccccc1)NC(=O)[C@H](CC(C)C)NC(=O)OCc1ccccc1)OCC
EC50 (HeLa [1]): > 320 µM | CC50 (HeLa [2]): > 320 µM | K obs / 1 [3]: 0 M⁻¹ s⁻¹

CC(C)C[C@H](NC(=O)OCc1ccccc1)C(=O)N[C@@H](Cc1ccccc1)C(=O)N[C@H](/C=C/C(=O)OCc1ccccc1)CCC(N)=O
EC50 (HeLa [1]): 3.2 µM | CC50 (HeLa [2]): > 100 µM | K obs / 1 [3]: 39400 M⁻¹ s⁻¹

CC(C)C[C@H](NC(=O)OCc1ccccc1)C(=O)N[C@@H](Cc1ccccc1)C(=O)N[C@H](/C=C/C(=O)n1cccc1)CCC(N)=O
EC50 (HeLa [1]): 1.4 µM | CC50 (HeLa [2]): 6.3 µM | K obs / 1 [3]: 400000 M⁻¹ s⁻¹

CC(C)C[C@H](NC(=O)OCc1ccccc1)C(=O)N[C@@H](Cc1ccccc1)C(=O)N[C@H](/C=C/C(=O)NC1CCCC1)CCC(N)=O
EC50 (HeLa [1]): > 100 µM | CC50 (HeLa [2]): > 320 µM | K obs / 1 [3]: 250 M⁻¹ s⁻¹

CC(C)C[C@H](NC(=O)OCc1ccccc1)C(=O)N[C@@H](Cc1ccccc1)C(=O)N[C@H](/C=C/c1cocn1)CCC(N)=O
EC50 (HeLa [1]): > 100 µM | CC50 (HeLa [2]): > 100 µM | K obs / 1 [3]: 0 M⁻¹ s⁻¹

CON1CC/C(=C\[C@H](CCC(N)=O)NC(=O)[C@H](Cc2ccccc2)NC(=O)[C@H](CC(C)C)NC(=O)OCc2ccccc2)C1=O
EC50 (HeLa [1]): 18 µM | CC50 (HeLa [2]): > 100 µM | K obs / 1 [3]: 800 M⁻¹ s⁻¹

CC(C)C[C@H](NC(=O)OCc1ccccc1)C(=O)N[C@@H](Cc1ccccc1)C(=O)N[C@H](/C=C/C(=O)N1CCc2ccc(S(=O)(=O)N3CCCC3)cc21)CCC(N)=O
EC50 (HeLa [1]): > 320 µM | CC50 (HeLa [2]): > 320 µM | K obs / 1 [3]: 22700 M⁻¹ s⁻¹

CC(C)C[C@H](NC(=O)OCc1ccccc1)C(=O)N[C@@H](Cc1ccccc1)C(=O)N[C@H](/C=C/C(=O)n1ccc2ccccc21)CCC(N)=O
EC50 (HeLa [1]): 1.8 µM | CC50 (HeLa [2]): 29 µM | K obs / 1 [3]: 53000 M⁻¹ s⁻¹

CC(C)C[C@H](NC(=O)OCc1ccccc1)C(=O)N[C@@H](Cc1ccccc1)C(=O)N[C@H](/C=C/C(=O)N1CCc2cc(Br)ccc21)CCC(N)=O
EC50 (HeLa [1]): 47 µM | CC50 (HeLa [2]): > 320 µM | K obs / 1 [3]: 5800 M⁻¹ s⁻¹

COc1ccc2c(c1)CCN2C(=O)/C=C/[C@H](CCC(N)=O)NC(=O)[C@H](Cc1ccccc1)NC(=O)[C@H](CC(C)C)NC(=O)OCc1ccccc1
EC50 (HeLa [1]): > 320 µM | CC50 (HeLa [2]): > 320 µM | K obs / 1 [3]: 3400 M⁻¹ s⁻¹

CC(C)C[C@H](NC(=O)OCc1ccccc1)C(=O)N[C@@H](Cc1ccccc1)C(=O)N[C@H](/C=C/C(=O)c1ccc(C#N)cc1)CCC(N)=O
EC50 (HeLa [1]): 50 µM | CC50 (HeLa [2]): > 320 µM | K obs / 1 [3]: 200000 M⁻¹ s⁻¹

CC(C)C[C@H](NC(=O)OCc1ccccc1)C(=O)N[C@@H](Cc1ccccc1)C(=O)N[C@H](/C=C/C(=O)O)CCC(N)=O
EC50 (HeLa [1]): > 100 µM | CC50 (HeLa [2]): > 320 µM | K obs / 1 [3]: 30 M⁻¹ s⁻¹

CC(C)C[C@H](NC(=O)OCc1ccccc1)C(=O)N[C@@H](Cc1ccccc1)C(=O)N[C@H](/C=C/C(=O)N1CCc2cc(F)ccc21)CCC(N)=O
EC50 (HeLa [1]): 11 µM | CC50 (HeLa [2]): > 320 µM | K obs / 1 [3]: 5400 M⁻¹ s⁻¹

CC(C)C[C@H](NC(=O)OCc1ccccc1)C(=O)N[C@@H](Cc1ccccc1)C(=O)N[C@H](/C=C/S(=O)(=O)c1ccccc1)CCC(N)=O
EC50 (HeLa [1]): 200 µM | CC50 (HeLa [2]): > 320 µM | K obs / 1 [3]: 270 M⁻¹ s⁻¹

CC(C)C[C@H](NC(=O)OCc1ccccc1)C(=O)N[C@@H](Cc1ccccc1)C(=O)N[C@H](/C=C/C(=O)N1CCC(O)C1)CCC(N)=O (stereo partly drawn)
EC50 (HeLa [1]): > 320 µM | CC50 (HeLa [2]): > 320 µM | K obs / 1 [3]: 1200 M⁻¹ s⁻¹

CC(C)C[C@H](NC(=O)OCc1ccccc1)C(=O)N[C@@H](Cc1ccccc1)C(=O)N[C@H](/C=C/C(=O)N1CCCCO1)CCC(N)=O
EC50 (HeLa [1]): 16 µM | CC50 (HeLa [2]): 100 µM | K obs / 1 [3]: 19000 M⁻¹ s⁻¹

CC(C)C[C@H](NC(=O)OCc1ccccc1)C(=O)N[C@@H](Cc1ccccc1)C(=O)N[C@H](/C=C/C(=O)N(C)c1ccccc1)CCC(N)=O
EC50 (HeLa [1]): 158 µM | CC50 (HeLa [2]): > 320 µM | K obs / 1 [3]: 580 M⁻¹ s⁻¹

CC(C)C[C@H](NC(=O)OCc1ccccc1)C(=O)N[C@@H](Cc1ccccc1)C(=O)N[C@H](/C=C/S(C)(=O)=O)CCC(N)=O
EC50 (HeLa [1]): > 320 µM | CC50 (HeLa [2]): > 320 µM | K obs / 1 [3]: 160 M⁻¹ s⁻¹

COC(=O)/C=C/[C@H](CCC(N)=O)NC(=O)[C@H](Cc1ccccc1)NC(=O)[C@H](CC(C)C)NC(=O)OCc1ccccc1
EC50 (HeLa [1]): 1.3 µM | CC50 (HeLa [2]): > 320 µM | K obs / 1 [3]: 20000 M⁻¹ s⁻¹

CSc1cccc2c1N(C(=O)/C=C/[C@H](CCC(N)=O)NC(=O)[C@H](Cc1ccccc1)NC(=O)[C@H](CC(C)C)NC(=O)OCc1ccccc1)CC2
K obs / 1 [3]: 300 M⁻¹ s⁻¹

CC(C)C[C@H](NC(=O)OCc1ccccc1)C(=O)N[C@@H](Cc1ccccc1)C(=O)N[C@H](/C=C/c1ccno1)CCC(N)=O
EC50 (HeLa [1]): > 320 µM | CC50 (HeLa [2]): > 320 µM | K obs / 1 [3]: 600 M⁻¹ s⁻¹

CC(C)C[C@H](NC(=O)OCc1ccccc1)C(=O)N[C@@H](Cc1ccccc1)C(=O)N[C@H](/C=C/C(=O)N1CCc2cccc(Cl)c21)CCC(N)=O
EC50 (HeLa [1]): 56 µM | CC50 (HeLa [2]): > 320 µM | K obs / 1 [3]: 5400 M⁻¹ s⁻¹

CC(C)C[C@H](NC(=O)OCc1ccccc1)C(=O)N[C@@H](Cc1ccccc1)C(=O)N[C@H](/C=C/C(=O)N1CCc2ccc(S(C)(=O)=O)cc21)CCC(N)=O
EC50 (HeLa [1]): > 320 µM | CC50 (HeLa [2]): > 320 µM | K obs / 1 [3]: 12900 M⁻¹ s⁻¹
